Read-outs that look alike come from different tables or passages of the source.
Tested on: SARS-CoV-2 South African variant
Type: in vivo, LVG Golden Syrian male hamsters

Row | Molecule | daily body weights expressed as the percentage of starting body weight (hamster, in vivo) | daily body weights expressed as the percentage of starting body weight (pump implant delivering angiotensin 1-7 at 12 mg/kg/day, started the day after inoculation with 500,000 PFU, n=3)
1 | CCNC(=O)NS(=O)(=O)c1sc(CC(C)C)cc1-c1ccc(Cn2c(-c3ccccc3)nc(OC)c2C=O)cc1 [AVE0991, N-(Ethylcarbamoyl)-3-(4-((5-formyl-4-methoxy-2-phenyl-1H-imidazol-1-YL)methyl)phenyl)-5-isobutylthiophene-2-sulfonamide] | continued to gain weight through the entire course of infection | 
2 | Asp-Arg-Val-Tyr-Ile-His-Pro (DRVYIHP; printed: Asp-Arg-Val-Tyr-Ile-His-Pro) [angiotensin 1-7] |  | continued to gain weight through the entire course of infection
